The target in data set [1] is NS3/4A protease gt 1b (Hepatitis C virus genotype 1b, UniProt P26663). Nature of the data set: HCV NS3 protease time-resolved fluorescence (TRF) assay, NS3/4A inhibitory activity (Ki), gt 1b. It counts as biochemical. The conditions noted are these: NS3/4A enzyme. How it is done: (§1) The HCV NS3 protease inhibitory activity of the present compounds may be tested using assays known in the art. One such assay is HCV NS3 protease time-resolved fluorescence (TRF) assay as described below and in WO 2006/102087. Other examples of such assays are described in, for example, WO 2005/046712. HCV NS3 protease inhibitors, such as those described herein have a Ki less than 50 μM, such as less than 10 μM, and less than 100 nM. Ki is determined by an NS3 protease assay. The assay is performed in a final volume of 100 μl in assay buffer containing 50 mM HEPES, pH 7.5, 150 mM NaCl, 15% glycerol, 0.15% TRITON X-100, 10 mM DTT, and 0.1% PEG 8000. NS3 protease is preincubated with various concentrations of inhibitors in DMSO for 30 minutes. The reaction is initiated by adding the TRF peptide substrate (final concentration 100 nM). NS3 mediated hydrolysis of the substrate is quenched after 1 hour at room temperature with 100 μl of 500 mM MES, pH 5.5. Product fluorescence is detected using either a VICTOR V2 or FUSION fluorophotometer (PERKIN ELMER LIFE AND ANALYTICAL SCIENCES) with excitation at 340 nm and emission at 615 nm with a 400 μs delay. Testing concentrations of different enzyme forms are selected to result in a signal to background ratio (SIB) of 10-30. IC50 values are derived using a standard four-parameter fit to the data. Ki values are derived from IC50 values using the following formula, IC50=Ki(1+[S]/KM), Eqn (1), where [S] is the concentration of substrate peptide in the reaction and KM is the Michaelis constant. See Paola Gallinari et al., Modulation of Hepatitis C Virus NS3 Protease and Helicase Activities through the Interaction with NS4A, 38 BIOCHEM. 5620 (1999); Paola Gallinari et al., Multiple Enzymatic Activities Associated with Recombinant NS3 Protein of Hepatitis C Virus, 72(8) J. VIROLOGY 6758 (1998); Mariana Taliani et al., A Continuous Assay of Hepatitis C Virus Protease Based on Resonance Energy Transfer Depsipeptide Substrates, 240 ANAL. BIOCHEM. 60 (1996).
(§2) This NS3 protease assay was performed in a final volume of 100 μl assay buffer containing 50 mM HEPES, pH 7.5, 150 mM NaCl, 15% glycerol, 0.15% TRITON X-100, 10 mM DTT, and 0.1% PEG 8000. NS3/4A protease was pre-incubated with various concentrations of inhibitors in DMSO for 30 minutes. The reaction was initiated by adding the TRF peptide substrate (final concentration 100 nM). NS3 mediated hydrolysis of the substrate was quenched after 1 hour at RT with 100 μl of 500 mM MES, pH 5.5. Product fluorescence was detected using either a V1CTOR V2 or FUSION fluorophotometer (PERKIN ELMER LIFE AND ANALYTICAL SCIENCES) with excitation at 340 nm and emission at 615 nm with a 400 us delay. Testing concentrations of different enzyme forms were selected to result in a signal to background ratio (SIB) of 10-30. IC50 values were derived using a standard four-parameter fit to the data. K, values are derived from IC50 values using the following formula, IC50=Ki(1+[S]/KM), Eqn (1), where [S] is the concentration of substrate peptide in the reaction and KM is the Michaelis constant. See Paola Gallinari et al., Modulation of Hepatitis C Virus NS3 Protease and Helicase Activities through the Interaction with NS4A, 38 BIOCHEM. 5620 (1999); Paola Gallinari et al., Multiple Enzymatic Activities Associated with Recombinant NS3 Protein of Hepatitis C Virus, 72(8) J. VIROLOGY 6758 (1998); Mariana Milani et al., A Continuous Assay of Hepatitis C Virus Protease Based on Resonance Energy Transfer Depsipeptide Substrates, 240 ANAL. BIOCHEM. 60 (1996); Shi-Shan Mao et al., A time-resolved, internally quenched fluorescence assay to characterize inhibition of hepatitis C virus nonstructural protein 3-4A protease at low enzyme concentrations, 373 ANALYTICAL BIOCHEMISTRY 1 (2008). Measuring Compound Inhibitory Potency (Replicon EC50 (nM))

The target of data set [2] is NS3/4A protease gt 1b A156V (Hepatitis C virus genotype 1b, UniProt P26663, A1182V). Nature of the data set: HCV NS3 protease time-resolved fluorescence (TRF) assay, NS3/4A inhibitory activity (Ki), gt 1b A156V. It counts as biochemical. How it is done:
as §1, §2

Data set [3] has as its target NS3/4A protease gt 3a (Hepatitis C virus genotype 3a, UniProt Q81258). Description: HCV NS3 protease time-resolved fluorescence (TRF) assay, NS3/4A inhibitory activity (Ki), gt 3a. It counts as biochemical. Conditions: NS3/4A enzyme. How it is done: as §1, §2
Data set [4] deals with HCV gt 1b replicon. Description: HCV replicon assay, compound inhibitory potency (Replicon EC50). The class given is cell-based. The conditions noted are these: Hepatitis C virus, GT1B. How it is done: Measurement of inhibition by compounds was performed using the HCV replicon system. Several different replicons encoding different HCV genotypes or mutations were used. In addition, potency measurements were made using different formats of the replicon assay, including different ways of measurements and different plating formats. See Jan M. Vrolijk et al., A replicon-based bioassay for the measurement of interferons in patients with chronic hepatitis C, 110 J. VIROLOGICAL METHODS 201 (2003); Steven S. Carroll et al., Inhibition of Hepatitis C Virus RNA Replication by 2′-Modified Nucleoside Analogs, 278(14) J. BIOLOGICAL CHEMISTRY 11979 (2003). However, the underlying principles are common to all of these determinations, and are outlined below.
Stable neomycin phosphotransferase encoding replicon-harboring cell lines were used, so all cell lines were maintained under G418 selection prior to the assay. In some cases the cell lines encoded a luciferase:NEO FUSION and could be assayed either directly by determination of RNA copy number, or indirectly through measurement of the luciferase activity.
To initiate an assay, replicon cells were plated in the presence of a dilution series of test compound in the absence of G418. Typically, the assays were performed in a 96-well plate format for manual operation, or a 384-well plate in an automated assay. Replicon cells and compound were incubated for 24 to 48 hours, depending on the assay. At the end of the assay, cells are washed free of media and compound and then lysed. For direct quantitation, RNA levels were measured by 32P-probe hybridization and protection, or in a TAQMAN-based assay and normalized to cellular cyclophilin A RNA levels. In some cases, luciferase activity was measured using a conventional luciferase assay. In all cases, EC50 determinations were calculated as a percent of a DMSO control by fitting the data to a four-parameter fit function.
Background: A replicon is a self-replicating genome or part of one, used to study replication in cells.

Data set [5] can be described thus: Plasma and liver concentrations and pharmacokinetics (Rat PK). It counts as in vivo. Also noted: Rat PK 5 mpk AUC: unit not given here. The conditions noted are these: for concentration at 4 h: 5 mg/kg, 5 mpk, liver concentration at 4 h; for Rat PK 5 mpk AUC: area under the plasma concentration/time curve. How it is done:
Test compounds were dissolved in a suitable dosing vehicle for i.v. administration (e.g., 20%:60%:20% DMSO:PEG400:H2O) or per oral administration (e.g., 10% POLYSORBATE80:90% H2O or 100% PEG400). Animals were administered (n=2 or 3) using a crossover study design for non-rodents. Plasma samples were collected at time points between 2 minutes and 24 hours, and compound levels were determined by RP-LC/MS/MS. Liver samples were collected post-mortem in rat. Liver samples were weighed, homogenized, and diluted using techniques known to those skilled in the art, and compound levels were determined by RP-LC/MS/MS.
Pharmacokinetic parameters were calculated based on non-compartmental analysis (e.g., using WATSON, WINNOLIN). Predose concentrations that were below the limit of quantitation (BLQ) were assigned a value of 0, Standard pharmacokinetic parameters CLp, Vdss, half-life (only for IV), % F, Cmax, Tmax, AUC0-last, AUC0-infinity were calculated. AUC values were calculated using linear trapezoidal method for ascending concentrations and the log trapezoidal method for descending concentrations.

[6] abbreviates: 10% fetal bovine serum, read-out: gt 1b Replicon EC50 10% FBS.
Where [7] appears, read: 50% normal human serum, read-out: gt 1b Replicon EC50 50% NHS.

SMILES strings stand for the structures. Like-named read-outs stand apart in the source and are kept apart here.

The term Ki denotes the dissociation constant of the complex between target and ligand, obtained from inhibition or displacement. For orientation: EC50 means the concentration at which the effect is half-maximal.

For `COc1ccc2nc3c(nc2c1)O[C@@H]1C[C@H]2C(=O)N[C@]4(C(=O)NS(=O)(=O)C5(C)CC5)C[C@H]4/C=C\CCCCC[C@H](NC(=O)O[C@]4(C)C[C@H]4CCCCC3)C(=O)N2C1` [Example 6, (3R,20R,22R,26S,32Z,34S,36R,39S)-9-Methoxyl-22-methyl-N-[(1-methylcyclopropyl)sulfonyl]-24,38,40-trioxo-4,23-dioxa-1,6,13,25,37-pentaazaheptacyclo[24.13.1.1^3,39.0^5,14.0^7,12.0^20,22.0^34,36]hentetraconta-5,7,9,11,13,32-hexaene-36-carboxamide], the Ki came to 0.03 nM in data set [1], 0.6 nM in data set [2] and 0.32 nM in data set [3]. For the same compound, the EC50 in data set [4] (setting [6]) worked out at 1 nM; in data set [4] (setting [7]), 4 nM. Besides, the concentration at 4 h in data set [5] came to 24 µM. For the same compound, the “Rat PK 5 mpk AUC” value in data set [5] was found to be 0.16.
On to `CC1(S(=O)(=O)NC(=O)[C@@]23C[C@H]2/C=C\CCCCC[C@@H]2NC(=O)O[C@@H]4CCC[C@H]4CCCCCc4nc5ccccc5nc4O[C@@H]4C[C@@H](C(=O)N3)N(C4)C2=O)CC1` [Example 7, (3R,20R,24R,28S,34Z,36S,38R,41S)—N-[(1-Methylcyclopropyl)sulfonyl]-26,40,42-trioxo-4,25-dioxa-1,6,13,27,39-pentaazaheptacyclo[26.13.1.1^3,41.0^5,14.0^7,12.0^20,24.0^36,38]tritetraconta-5,7,9,11,13,34-hexaene-38-carboxamide], for which the Ki in data set [1] worked out at 0.02 nM; in data set [2], 1.2 nM; in data set [3], 0.72 nM. Besides, the EC50 amounted to 2 nM in data set [4] (setting [6]) and 10 nM in data set [4] (setting [7]). The same compound yielded a concentration at 4 h in data set [5] of 41 µM. The “Rat PK 5 mpk AUC” value in data set [5] was 1.35.
As to `O=C1N[C@H]2CCCCC/C=C\[C@@H]3C[C@@]3(C(=O)NS(=O)(=O)C3CC3)NC(=O)[C@@H]3C[C@H](CN3C2=O)Oc2nc3ccccc3nc2CCCCC[C@@H]2C[C@H]2O1` [Example 8, (3R,20R,22R,26S,32Z,34S,36R,39S)—N-(Cyclopropylsulfonyl)-24,38,40-trioxo-4,23-dioxa-1,6,13,25,37-pentaazaheptacyclo[24.13.1.1^3,39.0^5,14.0^7,12.0^20,22.0^34,36]hentetraconta-5,7,9,11,13,32-hexaene-36-carboxamide], the Ki in data set [1] was 0.02 nM; in data set [2] it was 0.9 nM; in data set [3] it was 0.49 nM. Also, the EC50 in data set [4] (setting [6]) was 1 nM; in data set [4] (setting [7]), 13 nM. In data set [5], this compound came in with a concentration at 4 h of 7 µM. Besides, the “Rat PK 5 mpk AUC” value in data set [5] is 0.06.
Take `CC1(S(=O)(=O)NC(=O)[C@@]23C[C@H]2/C=C\CCCCC[C@@H]2NC(=O)O[C@@H]4C[C@H]4CCCCCc4nc5ccccc5nc4O[C@@H]4C[C@@H](C(=O)N3)N(C4)C2=O)CC1` [Example 9, (3R,20R,22R,26S,32Z,34S,36R,39S)—N-[(1-Methylcyclopropyl)sulfonyl]-24,38,40-trioxo-4,23-dioxa-1,6,13,25,37-pentaazaheptacyclo[24.13.1.1^3,39.0^5,14.0^7,12.0^20,22.0^34,36]hentetraconta-5,7,9,11,13,32-hexaene-36-carboxamide]: the Ki stood at 0.03 nM in data set [1], 0.8 nM in data set [2] and 0.52 nM in data set [3]. In addition, the EC50 in data set [4] (setting [6]) is 2 nM; in data set [4] (setting [7]), 11 nM. In data set [5], this compound displayed a concentration at 4 h of 20 µM. The “Rat PK 5 mpk AUC” value in data set [5] is given as 0.26.
As to `C[C@@]12C[C@H]1CCCCCc1nc3ccccc3nc1O[C@@H]1C[C@H]3C(=O)N[C@]4(C(=O)NS(=O)(=O)C5CC5)C[C@H]4/C=C\CCCCC[C@H](NC(=O)O2)C(=O)N3C1` [Example 10, (3R,20R,22R,26S,32Z,34S,36R,39S)—N-(Cyclopropylsulfonyl)-22-methyl-24,38,40-trioxo-4,23-dioxa-1,6,13,25,37-pentaazaheptacyclo[24.13.1.1^3,39.0^5,14.0^7,12.0^20,22.0^34,36]hentetraconta-5,7,9,11,13,32-hexaene-36-carboxamide], the Ki in data set [1] came out at 0.02 nM; in data set [2], 0.6 nM; in data set [3] it was 0.35 nM. The EC50 amounted to 1 nM in data set [4] (setting [6]) and 5 nM in data set [4] (setting [7]). In data set [5], this compound registered a concentration at 4 h of 15 µM. Also, the “Rat PK 5 mpk AUC” value in data set [5] is listed as 0.6.

The record behind these values is US8828930B2, “Hepatitis C virus NS3 protease inhibitors” (Merck Sharp & Dohme Corp., priority 2009, dated 2014).
